pIC50: −log10 of the molar value.
Target: T1, human lung fibroblast collagenase (Homo sapiens, UniProt P03956)
T1 construct: purified from culture supernatants from the human lung fibroblast cell line, WI-38; endogenous in cells; host or cells: WI-38 (human lung fibroblast cell line), culture supernatant, purified
T1 sequence (P03956 100-469): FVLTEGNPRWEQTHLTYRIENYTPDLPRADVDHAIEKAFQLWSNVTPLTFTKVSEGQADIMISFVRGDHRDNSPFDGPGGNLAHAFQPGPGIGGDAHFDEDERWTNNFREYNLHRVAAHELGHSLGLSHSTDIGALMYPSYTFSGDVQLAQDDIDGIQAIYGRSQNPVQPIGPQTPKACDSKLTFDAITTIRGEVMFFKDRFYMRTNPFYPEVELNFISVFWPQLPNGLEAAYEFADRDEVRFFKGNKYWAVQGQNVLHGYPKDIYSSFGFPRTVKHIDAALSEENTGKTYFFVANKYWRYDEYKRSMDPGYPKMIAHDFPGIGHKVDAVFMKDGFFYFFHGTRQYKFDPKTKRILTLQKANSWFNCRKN
Assay: Collagenase inhibitor assay (degradation of 3H-acetylated rat skin type I collagen)
Assay type: biochemical
Conditions: collagenase purified from WI-38 culture supernatants; 3H-acetylated rat skin type I collagen substrate; 5 min pre-incubation, 37° C. overnight; β-mercaptoethanol may be incorporated; read-out: IC50 (50% inhibitory concentration), inhibition of human lung fibroblast collagenase
Experimental: The test is performed essentially as in Cawston and Barrett, Anal. Biochem. 99, 340-345 (1979). Compounds for testing are dissolved in methanol by sonication and added to collagenase (purified from culture supernatants from the human lung fibroblast cell line, WI-38) in buffer. To ensure that thiol collagenase inhibitors remain unoxidised, β-mercaptoethanol may be incorporated in the methanol solvent and/or the diluent buffers to give a final concentration of 9.6×10-^5 M. The minimal direct effect of β-mercaptoethanol on the degradation of collagen by human collagenase is controlled for. After a 5 min pre-incubation at 37° C., the assay tubes are cooled to 4° C. and ^3 H-acetylated rat skin type I collagen is added. The assay tubes are incubated at 37° C. overnight. The ^3 H-collagen forms insoluble fibrils, which are the substrate for the enzyme.
To terminate the assay, the assay tubes are spun at 12000 rpm for 15 min. Undigested ^3 H-collagen is pelleted, while digested ^3 H-collagen is found as soluble peptides in the supernatant. A sample of the supernatant is taken for liquid scintillation counting.
The activity of collagenase inhibitors (IC50 :50% inhibitory concentration) is expressed as that concentration of compound that inhibits a known (standard) concentration of enzyme by 50%.

Row | pIC50 | SMILES
1 | 8.57 | COC(=O)CC(S)C(CC(C)C)C(=O)NC1CCCCCCCCCCNC1=O (single isomer, unassigned) [Example E2A, 3-mercapto-6-methyl-4-[(2-oxoazacyclotridec-3-yl)aminocarbonyl]heptanoic acid, methyl ester]
2 | 7.82 | CC(C)CC(C(=O)NC1CCCCCCCCCCNC1=O)C(S)CC(=O)OC(C)C (stereo not drawn) [Example E4A]
3 | 7.13 | CC(C)CC(C(=O)NC1CCCCCCCCCCNC1=O)C(S)CC(=O)O (single isomer, unassigned) [Example E3A, 3-Mercapto-6-methyl-4-[(2-oxoazacyclotridec-3-yl)aminocarbonyl]heptanoic acid]

Source: patent publication US5190937A, “Lactam derivatives” (Beecham Group p.l.c., priority 1990, dated 1993)
